Results published in patent US20240122909A1, “TREATMENTS OF HEREDITARY ANGIOEDEMA” (KALVISTA PHARMACEUTICALS LIMITED, priority 2021, published 2024).

What was measured:
Factor XII (FXII) = test: Phase 1 study, ex vivo DXS-stimulated cleavage of Factor XII (Wes); format: in vivo, human; settings: 600 mg capsules, up to 12 hrs post-dose
Description: (§1) DXS-stimulated cleavage of plasma prekallikrein and Factor XII (FXII) were quantified by capillary-based immunoassay on the Wes System (ProteinSimple) analogously.

[1] = Phase 1 multiple dose study, safety, tolerability and ECG; format: in vivo, human; settings: total 1800 mg, healthy adults
Method: This was a phase 1, double-blind, placebo-controlled, multiple-dose, multiple-cohort study to evaluate safety and tolerability of the compound as well as of the ECG effects of the compound formulated as 100 mg Film Coated Tablets in healthy adult male and female subjects.
Four (4) cohorts were evaluated. Cohorts 1, 2 and 3 included 8 subjects each. Cohort 4 included 18 subjects. Every attempt was made to include an equal number of male and female subjects in each cohort.
During the study, oral doses of 600 mg of the compound as Film Coated Tablets (six 100 mg tablets) or 6 matching placebo tablets were administered once every 8 hours (Cohort 1) every 4 hours (Cohort 2), or every 2 hours (Cohort 3 and 4) to healthy adult male and female subjects up to a total dose of 1800 mg. In Cohorts 1, 2 and 3, 6 subjects received the compound as 100 mg Film Coated Tablets and 2 subjects received the placebo for a total of 8 subjects per cohort. In Cohort 4, 12 subjects received the compound as 100 mg Film Coated Tablets and 6 subjects received the placebo for a total of 18 subjects.
A Holter monitor was attached to each subject in order to continuously record ECGs. The monitor was attached 1 hour before the first dose and remained attached until after the final blood sample collection. The electrodes for the Holter monitor were checked by a member of the clinic staff at appropriate intervals to ensure they were attached.

[2] = Phase 1 single ascending dose study, plasma pharmacokinetics; format: in vivo, human; settings: oral capsule 5 mg to 600 mg, fasted healthy males
Method: This study was a randomized, double-blind, placebo-controlled single ascending dose (SAD) and crossover studies for food effect and capsule/tablet formulations.
Samples for pharmacokinetic (PK) and PD assessment were taken at repeated intervals over 48 hours.
Plasma samples used for PK assessment were analysed using a validated liquid chromatography tandem mass spectrometry (LC MS/MS) method.

plasma kallikrein = plasma kallikrein (Homo sapiens, UniProt P03952); test: Phase 1 study, ex vivo PKa catalytic activity in DXS-stimulated undiluted plasma; design: samples from a Phase 1 Single Ascending Dose Study in healthy adult males; from tissue; host or cells: undiluted plasma of healthy adult male volunteers after oral dosing; settings: 600 mg tablet
Method: PD measurements were determined in dextran sulfate (DXS) stimulated undiluted plasma using a fluorogenic enzyme assay and capillary based HK cleavage immunoassay.
The time until appearance of detectable amidolytic enzyme activity in DXS-stimulated plasma (lag time) was calculated from the catalytic activity assay. The detection sensitivity of the rate of catalytic activity in plasma based on using a Spark (Tecan) fluorimeter is a fluorescence increase to reach 1ΔF unit/sec.

plasma prekallikrein = test: Phase 1 study, ex vivo DXS-stimulated cleavage of plasma prekallikrein (Wes); format: in vivo, human; settings: 600 mg capsules, up to 12 hrs post-dose
Description: as §1

HK = test: Phase 1 study, ex vivo DXS-stimulated cleavage of HK (Wes capillary immunoassay); format: in vivo, human; settings: 600 mg capsules, up to 12 hrs post-dose
Method: DXS-stimulated cleavage of HK, in undiluted plasma was quantified by capillary-based immunoassay on the Wes System (ProteinSimple) using monoclonal anti-HK antibody and chemiluminescence-based detection. Plasma kallikrein mediated HK cleavage in undiluted citrated human plasma was induced by contact system activation with DXS (6.25 μg/ml) at 4° C. in selected samples from the SAD phase.

[3] = 3 x 600 mg every 8, 4 or 2 hours

plasma kallikrein, sequence (P03952 391-638 limits assumed): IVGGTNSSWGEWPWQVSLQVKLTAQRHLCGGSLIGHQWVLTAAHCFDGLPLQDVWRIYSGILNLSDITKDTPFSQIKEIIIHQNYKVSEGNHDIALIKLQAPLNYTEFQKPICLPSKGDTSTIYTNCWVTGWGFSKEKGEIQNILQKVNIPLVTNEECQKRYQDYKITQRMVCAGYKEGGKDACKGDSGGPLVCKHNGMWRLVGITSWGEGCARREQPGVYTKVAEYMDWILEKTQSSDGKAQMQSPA
plasma kallikrein, sequence (P03952 20-390 partner limits assumed): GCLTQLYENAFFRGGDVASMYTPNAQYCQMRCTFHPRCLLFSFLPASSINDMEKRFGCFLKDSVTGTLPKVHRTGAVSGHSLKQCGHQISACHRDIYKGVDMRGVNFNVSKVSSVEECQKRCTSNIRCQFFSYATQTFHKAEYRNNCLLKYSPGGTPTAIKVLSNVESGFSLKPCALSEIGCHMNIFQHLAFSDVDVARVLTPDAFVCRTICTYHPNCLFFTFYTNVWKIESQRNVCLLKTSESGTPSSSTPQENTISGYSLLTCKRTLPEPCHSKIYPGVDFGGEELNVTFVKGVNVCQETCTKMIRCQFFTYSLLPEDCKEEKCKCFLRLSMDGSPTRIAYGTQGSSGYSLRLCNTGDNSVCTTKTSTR

COCc1nn(Cc2ccc(Cn3ccccc3=O)cc2)cc1C(=O)NCc1nccc(OC)c1F [compound of Formula A, N-[(3-fluoro-4-methoxypyridin-2-yl)methyl]-3-(methoxymethyl)-1-({4-[(2-oxopyridin-1-yl)methyl]phenyl}methyl)pyrazole-4-carboxamide]
effect on generation of FXIIa (Factor XII (FXII)): reduces the generation of FXIIa
serious adverse events [1, 3]: No serious adverse events
severity of reported adverse events [1, 3]: mild
effects on ECG parameters ([1]; 3 x 600 mg): No clinically relevant effects on the studied ECG parameters
plasma exposure [2]: rapid and dose-dependent plasma exposure
lag time until appearance of catalytic activity during contact system activation (plasma kallikrein): increases the time until appearance of catalytic activity
food effect on pharmacodynamic profile (plasma kallikrein; fed vs fasted): no significant food-effect
effect on PPK cleavage (plasma prekallikrein): reduces PPK cleavage
effect on HK cleavage (HK): reduces HK cleavage
